From patent US10590393B2, “Retinoic acid enhanced human stem cell derived blood brain barrier model” (Wisconsin Alumni Research Foundation, priority 2012, dated 2020)
Read-outs that look alike come from different tables or passages of the source.

Key:
iPSC-derived BMECs = assay: Test of compounds for the ability to mimic the activity of RA (elevated TEER); type: cell-based, human; conditions: for induction of elevated TEER: ability to mimic the activity of RA
Excerpt: Further, Applicants tested a list of compounds for the ability to mimic the activity of RA.
A typical retinoic acid-enhanced blood brain barrier is created as described below and in the figures. Retinoic acid suitable for the present invention may be obtained from commercial sources such as Sigma-Aldrich. […] Both types of RA are suitable for the present invention.

[1] = tested on: hCMEC/D3 immortalized human BMEC line; conditions: cited from earlier work
IMR90-4-derived BMECs = assay: in vitro; conditions: for permeability: human, 1 h
Protocol: (§1) To determine Pe values for radiolabeled compounds, each compound was diluted to 0.4 μCi in transport buffer (distilled water with 0.12 M NaCl, 25 mM NaHCO3, 3 mM KCl, 2 mM MgSO4, 2 mM CaCl2, 0.4 mM K2HPO4, 1 mM HEPES, and 0.1% bovine serum albumin [BSA; Sigma]). 200 μL aliquots were extracted from the basolateral chamber every 15 min and replaced by fresh transport buffer. […] [^3H]-vincristine was purchased from American Radiolabeled Chemicals (St. Louis, Mo., USA), while all other radiolabeled compounds were acquired from PerkinElmer (Waltham, Mass., USA). All compound incubations were conducted at 37° C. and carried out on a rotator. Triplicate filters were used for all permeability studies.

in vitro = conditions: human, permeability
Protocol: as §1

[2] = RA treatment and optimized neural cell co-culture

With `O=C(O)CCc1cc(I)c(O)c(I)c1` [3,5-diiodo-4-hydroxyphenylpropionic acid] the “induction of elevated TEER” value (iPSC-derived BMECs) was “not to induce elevated TEER”.

In the case of `N[C@@H](Cc1cc(I)c(Oc2ccc(O)cc2)c(I)c1)C(=O)O` [3,5-diiodo-L-thyronine], the “induction of elevated TEER” value (iPSC-derived BMECs) is reported as “not to induce elevated TEER”.

With `CCCCCC#CCC#CCC#CCC#CCCCC(=O)O` [5,8,11,14-eicosatetraynoic acid] the “induction of elevated TEER” value (iPSC-derived BMECs) was “not to induce elevated TEER”.

In the case of `O=Cc1c2[nH]c3ccccc3c2cc2[nH]c3ccccc3c12` [6-formylindolo[3,2-B]carbazole], the “induction of elevated TEER” value (iPSC-derived BMECs) is reported as “not to induce elevated TEER”.

For `CC1=C(/C=C/C(C)=C\C=C\C(C)=C\C(=O)O)C(C)(C)CCC1` [9-cis RA], the “enhancement by RA isoform” value (iPSC-derived BMECs; two isoforms of RA tested) was “producing the desired enhancement”.

In the case of `C=C1CC[C@H](O)C/C1=C/C=C1\CCC[C@]2(C)[C@@H]([C@H](C)CCCC(C)(C)O)CC[C@@H]12` [25-hydroxyvitamin D3], the “induction of elevated TEER” value (iPSC-derived BMECs) is reported as “not to induce elevated TEER”.

In the case of `CC1(C)CC=C(c2ccccc2)c2cc(/C=C/c3ccc(C(=O)O)cc3)ccc21` [BMS 453], the “induction of elevated TEER” value (iPSC-derived BMECs) is reported as “not to induce elevated TEER”.

With `CC1(C)C(=O)C(C)(C)c2cc(C(=O)Nc3ccc(C(=O)O)cc3)ccc21` [BMS 753] the “induction of elevated TEER” value (iPSC-derived BMECs) was “induce elevated TEER”.

With `Clc1ccc(-c2nc3sccn3c2/C=N/OCc2ccc(Cl)c(Cl)c2)cc1` [CITCO] the “induction of elevated TEER” value (iPSC-derived BMECs) was “not to induce elevated TEER”.

For `COc1cc2c(c(OC)c1OC)-c1ccc(OC)c(=O)cc1[C@@H](NC(C)=O)CC2` [Colchicine, colchicine], the permeability ([1]; hCMEC/D3, colchicine and vincristine estimated from graphical data) is given as “approximately 1.6×10^−3 cm/min”, the “Average Pe” value (IMR90-4-derived BMECs; [2]) is given as 0.015 ± 0.007 10^−3 cm/min and the “Average Pe” value (IMR90-4-derived BMECs; RA treatment only) is given as 0.023 ± 0.0096 10^−3 cm/min. The Papp A→B at 1 h (in vitro; RA-treated cells without co-culture) was 0.383 ×10⁻⁶ cm/s and the Papp A→B at 1 h (in vitro; optimized co-culture conditions (pericyte/hNPC), RA-treated) was 0.25 ×10⁻⁶ cm/s.

With `COc1cc2nc(N3CCN(C(=O)c4ccco4)CC3)nc(N)c2cc1OC` [Prazosin, prazosin] the “Average Pe” value (IMR90-4-derived BMECs; [2]) was 0.11 ± 0.006 10^−3 cm/min, the “Average Pe” value (IMR90-4-derived BMECs; RA treatment only) was 0.2 ± 0.05 10^−3 cm/min and the permeability (IMR90-4-derived BMECs) was 2±0.5×10^−4 cm/min. The Papp A→B at 1 h (in vitro) was 1.83 ×10⁻⁶ cm/s.

For `CC[C@]1(O)C[C@H]2CN(CCc3c([nH]c4ccccc34)[C@@](C(=O)OC)(c3cc4c(cc3OC)N(C=O)[C@H]3[C@@](O)(C(=O)OC)[C@H](OC(C)=O)[C@]5(CC)C=CCN6CC[C@]43[C@@H]65)C2)C1` [Vincristine, vincristine], the permeability [1] is listed as “approximately 0.75×10^−3 cm/min”, the permeability (IMR90-4-derived BMECs) is listed as 3.5±0.9×10^−5 cm/min and the Papp A→B at 1 h (in vitro) is listed as 0.433 ×10⁻⁶ cm/s.

In the case of `Cc1cccc(Nc2cc(Cl)nc(SCC(=O)O)n2)c1C` [WY-14643], the “induction of elevated TEER” value (iPSC-derived BMECs) is reported as “not to induce elevated TEER”.

In the case of `CCCCC[C@H](O)/C=C/[C@@H]1[C@H]2C/C(=C/CCCC(=O)O)C[C@H]2C[C@H]1O` [carbacyclin], the “induction of elevated TEER” value (iPSC-derived BMECs) is reported as “induce elevated TEER”.

For `C[C@H](CCC(=O)O)[C@H]1CC[C@H]2[C@@H]3[C@H](O)C[C@@H]4C[C@H](O)CC[C@]4(C)[C@H]3C[C@H](O)[C@]12C` [cholic acid], the “induction of elevated TEER” value (iPSC-derived BMECs) was “not to induce elevated TEER”.

With `CC/C=C\C/C=C\C/C=C\C/C=C\C/C=C\C/C=C\CCC(=O)O` [docosa-4Z,7Z,10Z,13Z,16Z,19Z-hexaenoic acid] the “induction of elevated TEER” value (iPSC-derived BMECs) was “not to induce elevated TEER”.

For `CC(=O)[C@H]1[C@H](C#N)C[C@H]2[C@@H]3CC=C4C[C@@H](O)CC[C@]4(C)[C@H]3CC[C@@]21C` [pregnenolone-16α-carbonitrile], the “induction of elevated TEER” value (iPSC-derived BMECs) was “not to induce elevated TEER”.

With CD 3254 the “induction of elevated TEER” value (iPSC-derived BMECs) was “induce elevated TEER”.
